Data from patent US12077503B2, “Substituted cyclic amides and their use as herbicides” (FMC CORPORATION, priority 2015, dated 2024).

Legend:
Format in all cases: in vivo
[1] = tested on: ducksalad (Heteranthera limosa); test: Test B flooded paddy test; conditions: Flood, 0 to 100 scale where 0 is no effect and 100 is complete control, 13 to 15 d
Outline: (§1)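 Visual ratings (0 none to 100 complete control) are relative to untreated plants, taken 13–15 d after treatment in a greenhouse. Test material went straight into floodwater standing 3 cm above the soil, kept constant, on plants at the 2-leaf stage.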

rice (Oryra sativa) = test: Test B flooded paddy test; conditions: Flood, 0 to 100 scale where 0 is no effect and 100 is complete control, 13 to 15 d
Outline: as §1

[2] = tested on: barnyardgrass (Echinochloa crus-galli); test: Test B flooded paddy test; conditions: Flood, 0 to 100 scale where 0 is no effect and 100 is complete control, 13 to 15 d
Outline: as §1

[3] = tested on: sedge, umbrella (small-flower umbrella sedge, Cyperus difformis); test: Test B flooded paddy test; conditions: Flood, 0 to 100 scale where 0 is no effect and 100 is complete control, 13 to 15 d
Outline: as §1

Kochia (Kochia scoparia) [4] = test: Test A postemergence
Outline: (§2)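 Ratings of 0 (no effect) to 100 (complete control) come from visual comparison with untreated controls roughly 10 d after treatment. Test chemicals, formulated in a non-phytotoxic solvent mixture with surfactant, were applied either as a preemergence directed soil spray on seeded soil or postemergence to one- to two-leaf plants 2 to 10 cm tall.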

[5] = tested on: Galium (catchweed bedstraw, Galium aparine); test: Test A postemergence
Outline: as §2

[6] = tested on: ryegrass, Italian (Italian ryegrass, Lolium multiflorum); test: Test A postemergence
Outline: as §2

[7] = tested on: blackgrass (Alopecurus myosuroides); test: Test A postemergence
Outline: as §2

[8] = tested on: barnyardgrass (Echinochloa crus-galli); test: Test A postemergence
Outline: as §2

[9] = tested on: wheat (Triticum aestivum); test: Test A postemergence
Outline: as §2

[10] = tested on: giant foxtail (Setaria faberii); test: Test A postemergence
Outline: as §2

[11] = tested on: ragweed (common ragweed, Ambrosia elatior); test: Test A postemergence
Outline: as §2

[12] = tested on: pigweed (Amaranthus retroflexus); test: Test A postemergence
Outline: as §2

corn (Zea mays) = test: Test A postemergence
Outline: as §2

Kochia (Kochia scoparia) [13] = test: Test A preemergence; conditions: for Plant response rating, Kochia: 125 g ai/ha; for Kochia plant response rating (0 to 100 scale, 0 is no effect, 100 is complete control): 500 g ai/ha, visual injury approx. 10 d
Outline: as §2

[14] = tested on: ryegrass, Italian (Italian ryegrass, Lolium multiflorum); test: Test A preemergence; conditions: for Plant response rating, Ryegrass, Italian: 125 g ai/ha; for Ryegrass, Italian plant response rating (0 to 100 scale, 0 is no effect, 100 is complete control): 500 g ai/ha, visual injury approx. 10 d
Outline: as §2

[15] = tested on: barnyardgrass (Echinochloa crus-galli); test: Test A preemergence; conditions: for Plant response rating, Barnyardgrass: 125 g ai/ha; for Barnyardgrass plant response rating (0 to 100 scale, 0 is no effect, 100 is complete control): 500 g ai/ha, visual injury approx. 10 d
Outline: as §2

[16] = tested on: giant foxtail (Setaria faberii); test: Test A preemergence; conditions: for Plant response rating, Foxtail, Giant: 125 g ai/ha; for Foxtail, Giant plant response rating (0 to 100 scale, 0 is no effect, 100 is complete control): 500 g ai/ha, visual injury approx. 10 d
Outline: as §2

[17] = tested on: ragweed (common ragweed, Ambrosia elatior); test: Test A preemergence; conditions: for Plant response rating, Ragweed: 125 g ai/ha; for Ragweed plant response rating (0 to 100 scale, 0 is no effect, 100 is complete control): 500 g ai/ha, visual injury approx. 10 d
Outline: as §2

[18] = tested on: pigweed (Amaranthus retroflexus); test: Test A preemergence; conditions: for Plant response rating, Pigweed: 125 g ai/ha; for Pigweed plant response rating (0 to 100 scale, 0 is no effect, 100 is complete control): 500 g ai/ha, visual injury approx. 10 d
[19] = 125 g ai/ha, postemergence, visual rating after approx. 10 d, 0 to 100 scale (0 no effect, 100 complete control)
[20] = Postemergence, 500 g ai/ha, 0 to 100 scale where 0 is no effect and 100 is complete control
[21] = Preemergence, visual injury after approximately 10 d, 0 to 100 scale where 0 is no effect and 100 is complete control
[22] = 125 g ai/ha, postemergence, visual injury rating on 0 to 100 scale (0 no effect, 100 complete control), approx. 10 d
[23] = 500 g ai/ha, postemergence, 0 to 100 scale, 0 no effect, 100 complete control
[24] = preemergence, 0 to 100 scale (0 no effect, 100 complete control)

O=C1NCC(c2cc(F)c(F)cc2F)C1C(=O)Nc1ccc(F)cc1F (racemic) [Compound 551]
Plant response rating, Ducksalad ([1]; 250 g ai/ha): 85 | Plant response rating, Rice (rice (Oryra sativa); 250 g ai/ha): 15 | Plant response rating, Barnyardgrass ([2]; 250 g ai/ha): 20 | Plant response rating, Sedge, Umbrella ([3]; 250 g ai/ha): 0 | Plant response rating, Kochia (Kochia (Kochia scoparia) [4]; [19]): 0 | Plant response rating, Kochia (Kochia (Kochia scoparia) [4]; [20]): 0 | Plant response rating, Galium [5, 19]: 0 | Plant response rating, Galium [5, 20]: 0 | Plant response rating, Ryegrass, Italian [6, 19]: 0 | Plant response rating, Ryegrass, Italian [6, 20]: 0 | Plant response rating, Blackgrass [7, 19]: 0 | Plant response rating, Blackgrass [7, 20]: 0 | Plant response rating, Barnyardgrass [8, 19]: 10 | Plant response rating, Barnyardgrass [8, 20]: 80 | Plant response rating, Wheat [9, 19]: 0 | Plant response rating, Wheat [9, 20]: 0 | Plant response rating, Foxtail, Giant [10, 19]: 50 | Plant response rating, Foxtail, Giant [10, 20]: 80 | Plant response rating, Ragweed [11, 19]: 0 | Plant response rating, Ragweed [11, 20]: 0 | Plant response rating, Pigweed [12, 19]: 0 | Plant response rating, Pigweed [12, 20]: 0 | Plant response rating, Corn (corn (Zea mays); [19]): 0 | Plant response rating, Corn (corn (Zea mays); [20]): 0 | Plant response rating, Kochia (Kochia (Kochia scoparia) [13]; [21]): 0 | Kochia plant response rating (0 to 100 scale, 0 is no effect, 100 is complete control) (Kochia (Kochia scoparia) [13]; Preemergence): 0 | Plant response rating, Ryegrass, Italian [14, 21]: 0 | Ryegrass, Italian plant response rating (0 to 100 scale, 0 is no effect, 100 is complete control) ([14]; Preemergence): 0 | Plant response rating, Barnyardgrass [15, 21]: 30 | Barnyardgrass plant response rating (0 to 100 scale, 0 is no effect, 100 is complete control) ([15]; Preemergence): 90 | Plant response rating, Foxtail, Giant [16, 21]: 80 | Foxtail, Giant plant response rating (0 to 100 scale, 0 is no effect, 100 is complete control) ([16]; Preemergence): 90 | Plant response rating, Ragweed [17, 21]: 0 | Ragweed plant response rating (0 to 100 scale, 0 is no effect, 100 is complete control) ([17]; Preemergence): 0 | Plant response rating, Pigweed [18, 21]: 0 | Pigweed plant response rating (0 to 100 scale, 0 is no effect, 100 is complete control) ([18]; Preemergence): 0

COc1c(F)ccc(NC(=O)C2C(=O)NCC2c2ccc(F)c(F)c2)c1F (stereo not drawn) [Compound 419]
Plant response rating, Ducksalad ([1]; 500 g ai/ha): 50 | Plant response rating, Rice (rice (Oryra sativa); 500 g ai/ha): 0 | Plant response rating, Barnyardgrass ([2]; 500 g ai/ha): 40 | Plant response rating, Sedge, Umbrella ([3]; 500 g ai/ha): 0 | Kochia plant response rating (Kochia (Kochia scoparia) [4]; [22]): 20 | Plant response rating, Kochia (Kochia (Kochia scoparia) [4]; [23]): 20 | Galium plant response rating [5, 22]: 0 | Plant response rating, Galium [5, 23]: 0 | Ryegrass, Italian plant response rating [6, 22]: 0 | Plant response rating, Ryegrass, Italian [6, 23]: 20 | Blackgrass plant response rating [7, 22]: 0 | Plant response rating, Blackgrass [7, 23]: 0 | Barnyardgrass plant response rating [8, 22]: 60 | Plant response rating, Barnyardgrass [8, 23]: 80 | Wheat plant response rating [9, 22]: 0 | Plant response rating, Wheat [9, 23]: 20 | Foxtail, Giant plant response rating [10, 22]: 20 | Plant response rating, Foxtail, Giant [10, 23]: 90 | Ragweed plant response rating [11, 22]: 0 | Plant response rating, Ragweed [11, 23]: 0 | Pigweed plant response rating [12, 22]: 0 | Plant response rating, Pigweed [12, 23]: 0 | Corn plant response rating (corn (Zea mays); [22]): 0 | Plant response rating, Corn (corn (Zea mays); [23]): 20 | Plant response rating, Kochia (Kochia (Kochia scoparia) [13]; [24]): 0 | Kochia plant response rating (0 to 100 scale, 0 is no effect, 100 is complete control) (Kochia (Kochia scoparia) [13]; Preemergence): 0 | Plant response rating, Ryegrass, Italian [14, 24]: 0 | Ryegrass, Italian plant response rating (0 to 100 scale, 0 is no effect, 100 is complete control) ([14]; Preemergence): 0 | Plant response rating, Barnyardgrass [15, 24]: 60 | Barnyardgrass plant response rating (0 to 100 scale, 0 is no effect, 100 is complete control) ([15]; Preemergence): 90 | Plant response rating, Foxtail, Giant [16, 24]: 80 | Foxtail, Giant plant response rating (0 to 100 scale, 0 is no effect, 100 is complete control) ([16]; Preemergence): 90 | Plant response rating, Ragweed [17, 24]: 0 | Ragweed plant response rating (0 to 100 scale, 0 is no effect, 100 is complete control) ([17]; Preemergence): 0 | Plant response rating, Pigweed [18, 24]: 0 | Pigweed plant response rating (0 to 100 scale, 0 is no effect, 100 is complete control) ([18]; Preemergence): 20
